Laboratory results reported in publication PMC9297976 (Journal of Applied Toxicology, 2021).
pEC50, pIC50: −log10 of the molar value.

Tests used:
medaka ARβ (mArβ) [1] = biological target: T1, medaka ARβ (mArβ) (Oryzias latipes, UniProt D1MV73); assay: Medaka ARβ reporter gene assay, agonist assay; assay type: cell-based, Japanese medaka (Oryzias latipes)
T1 sequence (D1MV73 1-744): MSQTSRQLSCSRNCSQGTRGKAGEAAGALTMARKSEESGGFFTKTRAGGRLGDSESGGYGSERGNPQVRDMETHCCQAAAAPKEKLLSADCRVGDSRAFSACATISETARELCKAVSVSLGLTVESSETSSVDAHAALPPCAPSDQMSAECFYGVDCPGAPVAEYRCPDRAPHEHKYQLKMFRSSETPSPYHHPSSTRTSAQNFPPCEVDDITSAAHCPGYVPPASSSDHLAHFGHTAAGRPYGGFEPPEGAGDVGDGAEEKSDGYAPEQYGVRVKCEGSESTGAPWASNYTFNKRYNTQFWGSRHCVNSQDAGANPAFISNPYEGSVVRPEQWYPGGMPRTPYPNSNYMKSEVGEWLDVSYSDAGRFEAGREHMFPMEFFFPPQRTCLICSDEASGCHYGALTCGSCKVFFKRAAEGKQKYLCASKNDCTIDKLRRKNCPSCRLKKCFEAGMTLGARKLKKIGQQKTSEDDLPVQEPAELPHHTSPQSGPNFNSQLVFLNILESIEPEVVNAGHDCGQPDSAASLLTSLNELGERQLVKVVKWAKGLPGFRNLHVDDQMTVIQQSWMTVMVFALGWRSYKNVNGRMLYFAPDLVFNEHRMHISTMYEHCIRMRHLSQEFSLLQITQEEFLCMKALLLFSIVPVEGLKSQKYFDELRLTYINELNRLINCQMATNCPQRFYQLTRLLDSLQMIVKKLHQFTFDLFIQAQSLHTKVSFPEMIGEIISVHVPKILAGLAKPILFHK

[2] = system: Japanese medaka (Oryzias latipes); assay: Fish Short‐Term Reproduction Assay; assay type: in vivo; conditions: for GSI Female / GSI Male / HSI Female / HSI Male / Length Female / Length Male / Weight Female / Weight Male: completion of exposure
medaka ARβ (mArβ) [3] = biological target: T1, medaka ARβ (mArβ); assay: Medaka ARβ reporter gene assay, antagonist assay; assay type: cell-based, Japanese medaka (Oryzias latipes)
medaka Esr1 (mEsr1) [4] = biological target: T2, medaka Esr1 (mEsr1) (Oryzias latipes, UniProt P50241); assay: Medaka Esr1 reporter gene assay, antagonist assay; assay type: cell-based, Japanese medaka (Oryzias latipes); conditions: E2 spiked at 1.0 nM (B); MAC = 1.0 × 10^−4 M
T2 sequence (P50241 1-620): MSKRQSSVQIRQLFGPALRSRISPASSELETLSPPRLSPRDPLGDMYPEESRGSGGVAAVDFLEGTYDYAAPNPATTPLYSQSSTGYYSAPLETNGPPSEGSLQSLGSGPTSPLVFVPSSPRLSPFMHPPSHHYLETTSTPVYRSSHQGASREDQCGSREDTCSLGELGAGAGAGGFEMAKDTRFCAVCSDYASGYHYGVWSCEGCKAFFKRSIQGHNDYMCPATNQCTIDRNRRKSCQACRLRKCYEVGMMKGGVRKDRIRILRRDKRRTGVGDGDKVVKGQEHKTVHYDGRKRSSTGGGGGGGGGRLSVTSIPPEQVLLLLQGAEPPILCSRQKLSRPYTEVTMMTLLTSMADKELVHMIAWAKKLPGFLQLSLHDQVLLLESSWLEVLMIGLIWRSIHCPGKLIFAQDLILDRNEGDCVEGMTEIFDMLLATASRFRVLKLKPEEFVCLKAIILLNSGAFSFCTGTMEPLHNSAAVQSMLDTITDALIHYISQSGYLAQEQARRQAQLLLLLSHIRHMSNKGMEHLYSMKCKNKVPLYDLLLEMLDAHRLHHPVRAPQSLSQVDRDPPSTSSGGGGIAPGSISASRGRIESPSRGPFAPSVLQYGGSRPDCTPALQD

medaka Esr1 (mEsr1) [5] = biological target: T2, medaka Esr1 (mEsr1); assay: cell-based; design: species or system Japanese medaka (Oryzias latipes)
[6] = measured concentration 0.0943 mg/L
[7] = measured concentration 0.939 mg/L
[8] = measured concentration 9.53 mg/L

SMILES: O=C(c1ccc(O)cc1O)c1ccc(O)cc1O [BP2, Benzophenone‐2]
- Agonistic activity PC10 (medaka ARβ (mArβ) [1]; HepG2 cells, concentration with 10% of maximum activity of 11KT): PC10 = 1.2 × 10^−5 M
- Agonistic activity on mArβ (in words) (medaka ARβ (mArβ) [1]; only PC10 and not EC50 could be estimated): positive agonistic activity
- Fertility rate ([2]; 0.0943 mg/L measured, 21 d): 95 ± 2.3%
- Hepatic VTG, female ([2]; 0.0943 mg/L measured, 21 d): 354 ± 105 ng/mg‐liver
- Hepatic VTG, male ([2]; 0.0943 mg/L measured, 21 d): 0.5 ± 0.0 ng/mg‐liver
- Mortality ([2]; 0.0943 mg/L measured, 21 d): 0.0%
- Mortality, number of dead fish ([2]; 0.0943 mg/L measured, 21 d): 0
- Number of fertilized eggs (per female per day) ([2]; 0.0943 mg/L measured, 21 d): 15 ± 2.2
- Number of total eggs (per female per day) ([2]; 0.0943 mg/L measured, 21 d): 15 ± 2.3
- SSC female (joint plates with papillary processes) ([2]; 0.0943 mg/L measured, 21 d): 0 ± 0
- SSC male (joint plates with papillary processes) ([2]; 0.0943 mg/L measured, 21 d): 73 ± 7.0
- Fertility rate ([2]; 0.939 mg/L measured, 21 d): 94 ± 2.5%
- Hepatic VTG, female ([2]; 0.939 mg/L measured, 21 d): 398 ± 230 ng/mg‐liver
- Hepatic VTG, male ([2]; 0.939 mg/L measured, 21 d): 0.9 ± 0.5 ng/mg‐liver
- Mortality ([2]; 0.939 mg/L measured, 21 d): 4.2%
- Mortality, number of dead fish ([2]; 0.939 mg/L measured, 21 d): 1
- Number of fertilized eggs (per female per day) ([2]; 0.939 mg/L measured, 21 d): 14 ± 2.3
- Number of total eggs (per female per day) ([2]; 0.939 mg/L measured, 21 d): 15 ± 2.7
- SSC female (joint plates with papillary processes) ([2]; 0.939 mg/L measured, 21 d): 0 ± 0
- SSC male (joint plates with papillary processes) ([2]; 0.939 mg/L measured, 21 d): 77 ± 20
- Hepatic VTG, female ([2]; 9.53 mg/L measured, 21 d): 449 ± 114 ng/mg‐liver
- Mortality ([2]; 9.53 mg/L measured, 21 d): 0.0%
- Mortality, number of dead fish ([2]; 9.53 mg/L measured, 21 d): 0
- Number of fertilized eggs (per female per day) ([2]; 9.53 mg/L measured, 21 d): 13 ± 1.7
- Number of total eggs (per female per day) ([2]; 9.53 mg/L measured, 21 d): 14 ± 1.7
- SSC female (joint plates with papillary processes) ([2]; 9.53 mg/L measured, 21 d): 0 ± 0
- SSC male (joint plates with papillary processes) ([2]; 9.53 mg/L measured, 21 d): 79 ± 8.4
- Hepatic VTG, male ([2]; 9.53 mg/L measured, 21 d, sig. ↑ vs control): 393 ± 306 ng/mg‐liver
- Fertility rate ([2]; 9.53 mg/L measured, 21 d, sig. ↓ vs control): 90 ± 3.5%
- LOEC, elevated hepatic VTG in males ([2]; 21 d): 9.53 mg/L
- LOECmVTG ([2]; LOEC on VTG induction in males): 9,530 μg/L
- LOECREPRO ([2]; LOEC on reproduction (fecundity and/or fertility)): 9,530 μg/L
- LOECREPRO (reduction in fecundity or fertility) ([2]; concentrations without overt toxicity): 9,530 μg/L
- LOECTOX ([2]; lowest observed effect concentration on mortality): ND (>9,530) μg/L
- GSI Female [2, 6]: 6.9 ± 0.3%
- GSI Male [2, 6]: 1.07 ± 0.14%
- HSI Female [2, 6]: 2.8 ± 0.87%
- HSI Male [2, 6]: 1.8 ± 0.37%
- Length Female [2, 6]: 30.2 ± 0.4 mm
- Length Male [2, 6]: 30.8 ± 1.2 mm
- Weight Female [2, 6]: 296 ± 16 mg
- Weight Male [2, 6]: 291 ± 27 mg
- GSI Female [2, 7]: 7.6 ± 1.2%
- GSI Male [2, 7]: 0.69 ± 0.15%
- HSI Female [2, 7]: 3.1 ± 0.68%
- HSI Male [2, 7]: 1.9 ± 0.24%
- Length Female [2, 7]: 30.3 ± 1.0 mm
- Length Male [2, 7]: 30.6 ± 1.1 mm
- Weight Female [2, 7]: 304 ± 48 mg
- Weight Male [2, 7]: 290 ± 32 mg
- GSI Female [2, 8]: 8.6 ± 0.4%
- GSI Male [2, 8]: 0.79 ± 0.23%
- HSI Female [2, 8]: 3.5 ± 0.58%
- HSI Male [2, 8]: 2.0 ± 0.55%
- Length Female [2, 8]: 30.4 ± 0.5 mm
- Length Male [2, 8]: 31.9 ± 1.1 mm
- Weight Female [2, 8]: 295 ± 8.0 mg
- Weight Male [2, 8]: 327 ± 34 mg
- In vitro positive: aAr (medaka ARβ (mArβ) [3]; mode of action in which IC50 or IC30 was obtained in RGA): aAr
- pIC50 (medaka ARβ (mArβ) [3]; read-out: Antagonistic activity IC50, 11‐KT spiked at 50 nM (D)): 4.40
- Antagonistic activity on mArβ (in words) (medaka ARβ (mArβ) [3]; transcriptional activity on mArβ by 11KT): inhibitory potency
- Antagonistic activity (medaka Esr1 (mEsr1) [4]): NE (MAC = 1.0 × 10^−4 M)^(B)
- In vitro positive: Esr (medaka Esr1 (mEsr1) [5]; mode of action in which EC50 or PC10 was obtained in RGA): Esr
- pEC50 (medaka Esr1 (mEsr1) [5]; read-out: Agonistic activity EC50, HEK293 cells): 5.80
